Assays:
[1] = system: rabbit model of dry eye syndrome; experiment: Alcian blue assay of conjunctival mucus secretion in N-acetylcysteine-induced rabbit dry eye syndrome model; format: in vivo, New Zealand White (NZW) rabbits; conditions: 0.5% solution instilled 4 times/day (0.1 mL) for seven days; conjunctiva, absorbance at 605 nm; Mean ± S.D.
Experimental: (§1) Male New Zealand White (NZW) rabbits were randomly assigned into two groups, each consisting of 5 animals. In order to induce dry eye syndrome, N-acetylcysteine was first dissolved at a concentration of 20% in physiological saline. Then, the rabbit's lower eyelid was pulled slightly away from the globe to form a cup shape and the above-prepared N-acetylcysteine solution was instilled into the conjunctival sac six times every 2 hours, resulting in establishment of an animal model of dry eye syndrome. 3′,4′,5-trimethoxy flavone derivatives were dissolved at a concentration of 0.5% in a 0.1N sodium hydroxide solution which was then titrated to pH 7.0 to 8.0 with 10% acetic acid. From the following day after induction of dry eye syndrome, the titrated 3′,4′,5-trimethoxy flavone derivatives were repeatedly instilled into conjunctival sacs of animals at a dose frequency of 4 times/day (0.1 mL/each time) for seven consecutive days. On the next day following the induction of dry eye syndrome and upon completion of the experiment, the degree of ocular surface damage was evaluated to calculate a damage decrease rate (%) using Rose Bengal assay, and mucus secretion in the conjunctiva was quantitatively analyzed using Alcian blue assay. More specifically referring to Rose Bengal assay, 10 μl of a 1% Rose Bengal solution was dropped into the eyes of animals, and distribution and intensity of Rose Bengal staining were scored according to the method disclosed in Urashima et al., Cornea, 23:613-9, 2004. For Alcian blue assay, the rabbit's conjunctivae were excised, weighed, stained with a 0.1% Alcian blue solution for 2 hours and then washed with a 0.25 M sucrose solution. Following extraction with a 0.5 M magnesium chloride solution, the absorbance was measured at 605 nm.

[2] = system: rabbit model of dry eye syndrome; experiment: Rose Bengal assay of ocular surface damage in N-acetylcysteine-induced rabbit dry eye syndrome model; format: in vivo, New Zealand White (NZW) rabbits; conditions: 0.5% solution instilled into conjunctival sac 4 times/day (0.1 mL) for seven days; Mean ± S.D.
Experimental: as §1

[3] = system: human mucoepidermoid pulmonary carcinoma cell line NCI-H292; experiment: Mucin secretion (MUC4, MUC5AC) by ELISA in NCI-H292 cells; format: cell-based; conditions: 24 hours, read-out: % increase in mucin secretion vs. non-treated control group; for activation at 0.8 µg/mL: 0.8 μg/mL; for activation at 4 µg/mL: 4 μg/mL; for activation at 20 µg/mL: 20 μg/mL; for activation at 100 µg/mL: 100 μg/mL
Experimental: 2×10^5 cells/well of the human mucoepidermoid pulmonary carcinoma cell line NCI-H292 (ATCC, #CRL-1848) were seeded on a 96-well plate, and treated with 3′,4′,5-trimethoxy flavone derivatives at various concentrations of 0.16 to 100 μg/mL for 24 hours. Thereafter, secretion levels of representative transmembrane mucin MUC4 and secretory mucin MUC5AC were measured by enzyme-linked immunosorbent assay (ELISA).

SMILES	Alcian Blue Assay Absorbance/g tissue [1] [Absorbance/g tissue]	Rose Bengal Assay Damage decrease rate (%) [2] [%]	activation at 0.8 µg/mL [3] [%]	activation at 4 µg/mL [3] [%]	activation at 20 µg/mL [3] [%]	activation at 100 µg/mL [3] [%]
COc1ccc(-c2cc(=O)c3c(OC)cc(OCC(=O)NS(=O)(=O)c4ccccc4)cc3o2)cc1OC [Example 5, 7-{(N-benzenesulfonylcarbamoyl)methyloxy}-3′,4′,5-trimethoxy flavone]	0.32 ± 0.09	70.1 ± 5.2	43.9	45.4	35.4	70.9
COc1ccc(-c2cc(=O)c3c(OC)cc(OCC(=O)NC(N)=O)cc3o2)cc1OC [Example 10, 7-{(carbamylcarbamoyl)methyloxy}-3′,4′,5-trimethoxy flavone]	–	–	–	6.7	15.4	25.9
COc1ccc(-c2cc(=O)c3c(OC)cc(OCC(=O)NS(C)(=O)=O)cc3o2)cc1OC [Example 9, 7-{(methylsulfonylcarbamoyl)methyloxy}-3′,4′,5-trimethoxy flavone]	0.35 ± 0.13	76.8 ± 8.4	9.7	15.9	37.4	43.3
COc1ccc(-c2cc(=O)c3c(OC)cc(OCc4nnn[nH]4)cc3o2)cc1OC [Example 1, 7-(tetrazol-5-ylmethyloxy)-3′,4′,5-trimethoxy flavone]	–	–	18.7	28.1	57.8	52
COc1ccc(-c2cc(=O)c3c(OC)cc(OCC(=O)NC#N)cc3o2)cc1OC [Example 4, 7-{(N-cyanocarbamoyl)-methyloxy}-3′,4′,5-trimethoxy flavone]	0.24 ± 0.19	83.8 ± 4.6	–	–	4.3	25.2
COc1ccc(-c2cc(=O)c3c(OC)cc(OCC(=O)NC(C)=O)cc3o2)cc1OC [Example 12, 7-{(acetylcarbamoyl)methyloxy}-3′,4′,5-trimethoxy flavone]	–	–	15.2	13.6	20.5	30.2
COc1ccc(-c2cc(=O)c3c(OC)cc(OCC(=O)NS(N)(=O)=O)cc3o2)cc1OC [Example 8, 7-{(aminosulfonylcarbamoyl)methyloxy}-3′,4′,5-trimethoxy flavone]	–	–	4.4	10.2	15.4	21.4
COc1ccc(-c2cc(=O)c3c(OC)cc(OCC(=O)O)cc3o2)cc1OC.O [7-carboxymethyloxy-3′,4′,5-trimethoxy flavone monohydrate]	0.38 ± 0.08	88.5 ± 4.7	24.8	39.1	52.5	75.9
COc1ccc(-c2cc(=O)c3c(OC)cc(OCC(N)=O)cc3o2)cc1OC [Example 3, 7-{(carbamoyl)methyloxy}-3′,4′,5-trimethoxy flavone]	–	–	2.2	6.6	10.4	15.8

From patent publication US8203011B2, “3′,4′,5-trimethoxy flavone derivatives as stimulant of mucus secretion, method for the same, and pharmaceutical composition comprising the same” (Dong-A Pharm. Co., Ltd., priority 2007, dated 2012)
